We go through 16 compounds from PubChem BioAssay (NCI).

Molecules are shown by their SMILES. “And” between values parts separate entries of the source, which are not always exact repeats. Equal entries are not always repeated.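 How tested: cells in 96-well plates exposed to compound for 48 hours at five concentrations. GI50: concentration for 50% inhibition of growth. TGI: total growth inhibition.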

Test systems include IGROV1 ovarian; SNB-19 CNS; OVCAR-3 ovarian; NCI/ADR-RES ovarian; A498 renal; RPMI-8226 leukemia; SR leukemia; DLD-1 colon; KM20L2 colon.
Common to all, as to experiment: NCI tumour cell line growth inhibition, 48 h

Consider `C[C@@]12[C@H]3CC[C@@H]1[C@H](O)C(=O)N2CC3`, for which the TGI with IGROV1 ovarian, in the test on SNB-19 CNS, in the test on OVCAR-3 ovarian, with NCI/ADR-RES ovarian, in the test on A498 renal and in the test with RPMI-8226 leukemia was above 100 µM in each case. The TGI in the test on SR leukemia is above 100 µM.

On to `CC(C)Sc1nc(C#N)cc2c1CCCC2`, for which the TGI in the test with IGROV1 ovarian was above 100 µM; in the test with SNB-19 CNS, above 100 µM; in the test with OVCAR-3 ovarian, above 100 µM; with NCI/ADR-RES ovarian, above 100 µM; with A498 renal, above 100 µM; in the test with RPMI-8226 leukemia, 68.9 µM. Moreover, the TGI with SR leukemia turned out to be 79.1 µM.

In the case of `N.N.N.O=[N+]([O-])[O-].O=[N+]([O-])[O-].O=[N+]([O-])[O-].O=[N+]([O-])[O-].[Co+3]`, the GI50 in the test with DLD-1 colon and in the test on KM20L2 colon was above 100 µM each time. Besides, the TGI in the test with DLD-1 colon, in the test on IGROV1 ovarian, in the test on SNB-19 CNS, in the test on OVCAR-3 ovarian, in the test on A498 renal and in the test on KM20L2 colon was above 100 µM each time. The compound further had a TGI in the test on RPMI-8226 leukemia above 100 µM.

`CC(C)=CCOC(=O)C(C)=[N+]=[N-]`: the TGI in the test with IGROV1 ovarian, in the test with SNB-19 CNS, with OVCAR-3 ovarian, in the test on NCI/ADR-RES ovarian, in the test with A498 renal and in the test with RPMI-8226 leukemia was above 100 µM throughout. The same compound yielded a TGI with SR leukemia above 100 µM.

As to `CC[C@]1(Cc2ccc(OC)c(OC)c2)CN(S(=O)(=O)c2ccc(C)cc2)C[C@@H]1OC(C)=O`, the TGI in the test on IGROV1 ovarian, in the test with SNB-19 CNS, in the test on OVCAR-3 ovarian, with NCI/ADR-RES ovarian, in the test on A498 renal and with RPMI-8226 leukemia was above 100 µM in each case. In the test on SR leukemia, the TGI is above 100 µM.

Regarding `Cc1nc2c(sc(=S)n2-c2ccccc2)c2nc3ncccc3n12`, the TGI in the test on IGROV1 ovarian, with SNB-19 CNS, with OVCAR-3 ovarian, with NCI/ADR-RES ovarian, with A498 renal and with RPMI-8226 leukemia was above 100 µM each time. In the test on SR leukemia, this compound yielded a TGI above 100 µM.

Consider `OCCCCCNc1c2ccccc2nc2ccccc12`, for which the TGI with IGROV1 ovarian was 12.2 µM; with SNB-19 CNS it was 10.8 µM; in the test on OVCAR-3 ovarian it was above 28.8 µM; in the test with NCI/ADR-RES ovarian, above 57.2 µM; in the test with A498 renal, 12.7 µM; with RPMI-8226 leukemia it was 33.2 µM. In addition, the TGI in the test on SR leukemia is above 23.2 µM.

As for `CCOc1cc(NC(C)=O)ccc1C(=O)NNC(=O)c1ccccc1OC(C)=O`, the TGI with IGROV1 ovarian is above 100 µM; in the test with SNB-19 CNS, above 100 µM; in the test on OVCAR-3 ovarian, above 100 µM; in the test on NCI/ADR-RES ovarian, above 78.7 µM; in the test with A498 renal it was 73.8 µM; in the test on RPMI-8226 leukemia, above 28.6 µM. The TGI in the test on SR leukemia was above 34.7 µM.

For the compound `CC(=O)OCC(C)C1=C(O)C(=O)C2(C)C/C=C(/C)CC/C=C(\C)CCC(O)C(C)CCC12` (centres undefined), the TGI worked out at 33 µM in the test with IGROV1 ovarian; 33.9 µM with SNB-19 CNS; 29.3 µM in the test on OVCAR-3 ovarian; 44 µM in the test on NCI/ADR-RES ovarian; 36 µM in the test with A498 renal; 39.2 µM in the test with RPMI-8226 leukemia. Further, the TGI in the test on SR leukemia was determined as 34.9 µM.

Regarding `COCOC1/C=C/CCCC#C[C@H](C)C(=O)CC1` (some centres undefined), the TGI with IGROV1 ovarian is 22.7 µM; in the test on SNB-19 CNS, 32.6 µM; in the test on OVCAR-3 ovarian, 15.2 µM; in the test on NCI/ADR-RES ovarian, 29 µM; with A498 renal, 25.4 µM; in the test on RPMI-8226 leukemia, 7.63 µM. The compound also came in with a TGI in the test with SR leukemia above 33.2 µM.

As for `C=C(C)C12CC(COC(=O)c3ccccc3)C34OC5(OC1C3C1OC1(CO)C(O)C1(O)C(OC(=O)c3ccccc3)C(C)C(C(C)CCCCCCC5O)C14)O2` (centres undefined), the TGI was above 100 µM in the test with IGROV1 ovarian; above 100 µM in the test with SNB-19 CNS; above 100 µM in the test on OVCAR-3 ovarian; above 100 µM with NCI/ADR-RES ovarian; above 100 µM in the test with A498 renal; above 75.8 µM with RPMI-8226 leukemia. For the same compound, the TGI in the test on SR leukemia was above 31.6 µM.

As to `CC(=O)OCC1OC(OC(C)(C)CC/C=C(\C)[C@@H]2C/C=C(\C)CC/C=C(\C)CC2)C(O)C(O)C1OC(C)=O` (some centres undefined), the TGI is > 79.1 µM and 32 µM with IGROV1 ovarian; > 100 µM and 25 µM in the test on SNB-19 CNS; > 100 µM and 28.6 µM in the test on OVCAR-3 ovarian; > 100 µM and 38.7 µM in the test on NCI/ADR-RES ovarian; > 100 µM and 44.8 µM with A498 renal; 70.6 µM and > 100 µM with RPMI-8226 leukemia. In the test with SR leukemia, this compound had a TGI above 100 µM. The GI50 in the test with SNB-19 CNS is 61.5 µM and 12.5 µM; in the test on OVCAR-3 ovarian, 53.3 µM and 15.3 µM; in the test with NCI/ADR-RES ovarian, 45.8 µM and 19.5 µM; in the test on A498 renal, > 100 µM and 24.4 µM; with SR leukemia it was 36.3 µM and > 100 µM.

Consider `Cc1ccc([C@@H]2[C@@H](C(=O)c3ccccn3)[C@H](c3ccc(C)cc3)C[C@](O)(c3ccccn3)[C@H]2C(=O)c2ccccn2)cc1`, for which the TGI with IGROV1 ovarian is above 100 µM; with SNB-19 CNS, above 64.3 µM; in the test on OVCAR-3 ovarian it was above 64.4 µM; with NCI/ADR-RES ovarian, above 100 µM; in the test with A498 renal it was above 41.6 µM; with RPMI-8226 leukemia it was above 92.6 µM. The TGI in the test with SR leukemia was above 100 µM.

Consider `CC(C)c1ccc2[nH]c(O)c(-c3[nH]c4ccccc4c3N=O)c2c1`, for which the TGI with IGROV1 ovarian came to 21.2 µM; in the test on SNB-19 CNS, 36.1 µM; in the test on OVCAR-3 ovarian, 20.7 µM; with NCI/ADR-RES ovarian, 22 µM; with A498 renal, 9.29 µM; in the test on RPMI-8226 leukemia it was 22.3 µM. In addition, the TGI in the test on SR leukemia was 7.32 µM.

Consider `COCOC1/C=C/CCCCC2=C(C)C=C(C1)O2` (centres undefined), for which the TGI in the test on IGROV1 ovarian, in the test with SNB-19 CNS, with OVCAR-3 ovarian, in the test on NCI/ADR-RES ovarian, with A498 renal and in the test with RPMI-8226 leukemia was above 100 µM each time. For the same compound, the TGI in the test on SR leukemia was above 100 µM.

In the case of `COc1cccc2c(N)c3cccc(C(=O)NCCN(C)C)c3nc12`, the TGI with IGROV1 ovarian stood at 1.65 µM; in the test on SNB-19 CNS it was 1.44 µM; in the test with OVCAR-3 ovarian, 1.7 µM; in the test on NCI/ADR-RES ovarian it was 12.4 µM; in the test with A498 renal it was 1.15 µM; with RPMI-8226 leukemia, 3.87 µM. The TGI in the test with SR leukemia was found to be 1.12 µM.
